What all share (experiment): Weeding effect in post-emergence stage
Holding throughout (type): in vivo
Holding throughout (settings): active ingredient 2000 g/ha, 3 weeks after application, fresh weight control rate

The test system of one experiment is Chenopodium album. The text has this:
(§1) The activity level criteria for plant damage (i.e., growth control rate) are as follows:
(§2) The above growth control rates are fresh weight control rates.
(§3) Experiment on weeding effect in post-emergence stage: monocotyledonous and dicotyledonous weed seeds and major crop seeds (wheat, corn, rice, soybean, cotton, oilseed rape, millet, sorghum) were placed in plastic pots filled with soil, then covered with 0.5-2 cm of soil, allowed to grow in a good greenhouse environment. After 2 weeks of sowing, the test plants were treated in the 2-3 leaf stage. The tested compounds of the present invention were respectively dissolved in acetone at the dosage of 2000, 1000, 500, 250, 125 g/ha, then added with Tween 80 and 1.5 liter/ha of emulsifiable concentrate of methyl oleate as synergist, diluted with a certain amount of water to obtain a solution with a certain concentration, and sprayed with a spray tower onto the plants. After the application, the plants were cultured for 3 weeks in the greenhouse, and then the experimental results were listed in Table 1.

In another experiment the test system is Descurainia sophia.
Source text: as §1, §2, §3

In experiment [1] the test system is Amaranthus retroflexus L.
Source text: as §1, §2, §3

The subject of another experiment is Abutilon theophrasti.
Source text: as §1, §2, §3

The results in this text go back to patent US12497365B2, “4-pyridinyl formamide compound or derivative thereof, preparation method therefor, herbicidal composition and use thereof” (Qingdao Kingagroot Chemical Compound Co., Ltd., priority 2019, dated 2025).

The structures appear in SMILES notation.

With `Cn1nnnc1NC(=O)c1ccnc(-c2cc(F)cc(Cl)c2)c1Cl` [Compound 1-90], the “Weeding effect, activity level (growth control rate), Chenopodium album” value (from here on “Weeding effect … Chenopodium album”) in the experiment on Chenopodium album is 5 (Level 5: growth control rate is above 85%). The “Weeding effect, activity level (growth control rate), Descurainia sophia” value (shortened to “Weeding effect … Descurainia sophia”) in the experiment with Descurainia sophia is listed as 5 (Level 5: growth control rate is above 85%). Besides, in experiment [1], the “Weeding effect, activity level (growth control rate), Amaranthus retroflexus L.” value (“Weeding effect … Amaranthus retroflexus L.” for short) is on record as 5 (Level 5: growth control rate is above 85%). In the experiment on Abutilon theophrasti, the “Weeding effect, activity level (growth control rate), Abutilon theophrasti” value (shortened to “Weeding effect … Abutilon theophrasti”) is 5 (Level 5: growth control rate is above 85%).

For the compound `Cn1nnnc1NC(=O)c1ccnc(-c2ccncc2)c1Cl` [Compound 1-147], in the experiment on Chenopodium album, the “Weeding effect … Chenopodium album” value is 5 (Level 5: growth control rate is above 85%). In the experiment on Descurainia sophia, the “Weeding effect … Descurainia sophia” value is reported as 5 (Level 5: growth control rate is above 85%). Moreover, the “Weeding effect … Amaranthus retroflexus L.” value in experiment [1] is on record as 5 (Level 5: growth control rate is above 85%). Also, the “Weeding effect … Abutilon theophrasti” value with Abutilon theophrasti was 5 (Level 5: growth control rate is above 85%).

`COc1ccc(-c2nccc(C(=O)Nc3nnnn3C)c2Cl)c(OC)c1` [Compound 1-105]: in the experiment on Chenopodium album, the “Weeding effect … Chenopodium album” value was 5 (Level 5: growth control rate is above 85%). Further, the “Weeding effect … Descurainia sophia” value in the experiment with Descurainia sophia is reported as 5 (Level 5: growth control rate is above 85%). Besides, the “Weeding effect … Amaranthus retroflexus L.” value in experiment [1] was 5 (Level 5: growth control rate is above 85%). The “Weeding effect … Abutilon theophrasti” value in the experiment with Abutilon theophrasti is recorded as 5 (Level 5: growth control rate is above 85%).

With `CCOC(C)n1cc(-c2nccc(C(=O)Nc3nnnn3C)c2Cl)cn1` (stereo not drawn) [Compound 1-176], in the experiment on Chenopodium album, the “Weeding effect … Chenopodium album” value was 5 (Level 5: growth control rate is above 85%). In addition, in the experiment with Descurainia sophia, the “Weeding effect … Descurainia sophia” value is 5 (Level 5: growth control rate is above 85%). In addition, in experiment [1], the “Weeding effect … Amaranthus retroflexus L.” value is recorded as 5 (Level 5: growth control rate is above 85%). For the same compound, the “Weeding effect … Abutilon theophrasti” value with Abutilon theophrasti is 5 (Level 5: growth control rate is above 85%).

On to `COC(=O)c1ccc(-c2nccc(C(=O)Nc3nnnn3C)c2Cl)cc1` [Compound 1-40], for which the “Weeding effect … Chenopodium album” value with Chenopodium album was 5 (Level 5: growth control rate is above 85%). Moreover, the “Weeding effect … Descurainia sophia” value in the experiment on Descurainia sophia was 5 (Level 5: growth control rate is above 85%). The “Weeding effect … Amaranthus retroflexus L.” value in experiment [1] is on record as 5 (Level 5: growth control rate is above 85%). The “Weeding effect … Abutilon theophrasti” value in the experiment on Abutilon theophrasti is reported as 5 (Level 5: growth control rate is above 85%).

For `Cn1nnnc1NC(=O)c1ccnc(-c2cc(Cl)nc(Cl)c2)c1Cl` [Compound 1-153], in the experiment with Chenopodium album, the “Weeding effect … Chenopodium album” value is 5 (Level 5: growth control rate is above 85%). Also, in the experiment on Descurainia sophia, the “Weeding effect … Descurainia sophia” value is given as 5 (Level 5: growth control rate is above 85%). Further, the “Weeding effect … Amaranthus retroflexus L.” value in experiment [1] is listed as 5 (Level 5: growth control rate is above 85%). For the same compound, the “Weeding effect … Abutilon theophrasti” value with Abutilon theophrasti is 5 (Level 5: growth control rate is above 85%).

As to `COc1ncc(-c2nccc(C(=O)Nc3nnnn3C)c2Cl)cn1` [Compound 1-161], the “Weeding effect … Chenopodium album” value in the experiment with Chenopodium album was 5 (Level 5: growth control rate is above 85%). In addition, the “Weeding effect … Descurainia sophia” value with Descurainia sophia was 5 (Level 5: growth control rate is above 85%). Also, in experiment [1], the “Weeding effect … Amaranthus retroflexus L.” value is reported as 5 (Level 5: growth control rate is above 85%). In the experiment with Abutilon theophrasti, the “Weeding effect … Abutilon theophrasti” value is 5 (Level 5: growth control rate is above 85%).

Regarding `CN(C)c1c(C(=O)Nc2nnnn2C)ccnc1-c1ccc(Cl)cc1` [Compound 1-2044], in the experiment on Chenopodium album, the “Weeding effect … Chenopodium album” value is recorded as 5 (Level 5: growth control rate is above 85%). Besides, the “Weeding effect … Descurainia sophia” value in the experiment with Descurainia sophia is listed as 5 (Level 5: growth control rate is above 85%). The “Weeding effect … Amaranthus retroflexus L.” value in experiment [1] is recorded as 5 (Level 5: growth control rate is above 85%). Also, the “Weeding effect … Abutilon theophrasti” value with Abutilon theophrasti was 5 (Level 5: growth control rate is above 85%).

With `Cn1nnnc1NC(=O)c1ccnc(-c2ccccc2-c2ccccc2)c1Cl` [Compound 1-52], in the experiment on Chenopodium album, the “Weeding effect … Chenopodium album” value was 5 (Level 5: growth control rate is above 85%). Besides, in the experiment with Descurainia sophia, the “Weeding effect … Descurainia sophia” value is reported as 5 (Level 5: growth control rate is above 85%). Also, the “Weeding effect … Amaranthus retroflexus L.” value in experiment [1] was 5 (Level 5: growth control rate is above 85%). Moreover, in the experiment on Abutilon theophrasti, the “Weeding effect … Abutilon theophrasti” value is recorded as 5 (Level 5: growth control rate is above 85%).

For the compound `Cn1nnnc1NC(=O)c1ccnc(-c2ccc(N)cc2)c1Cl` [Compound 1-37], in the experiment on Chenopodium album, the “Weeding effect … Chenopodium album” value is listed as 5 (Level 5: growth control rate is above 85%). The “Weeding effect … Descurainia sophia” value in the experiment with Descurainia sophia was 5 (Level 5: growth control rate is above 85%). The “Weeding effect … Amaranthus retroflexus L.” value in experiment [1] was 5 (Level 5: growth control rate is above 85%). In addition, the “Weeding effect … Abutilon theophrasti” value with Abutilon theophrasti is listed as 5 (Level 5: growth control rate is above 85%).

Regarding `Cn1nnnc1NC(=O)c1ccnc(-c2ncc(F)cn2)c1Cl` [Compound 1-164], the “Weeding effect … Chenopodium album” value in the experiment on Chenopodium album is 5 (Level 5: growth control rate is above 85%). The “Weeding effect … Descurainia sophia” value in the experiment on Descurainia sophia is reported as 5 (Level 5: growth control rate is above 85%). Moreover, the “Weeding effect … Amaranthus retroflexus L.” value in experiment [1] is recorded as 5 (Level 5: growth control rate is above 85%). Further, the “Weeding effect … Abutilon theophrasti” value with Abutilon theophrasti was 5 (Level 5: growth control rate is above 85%).

In the case of `COc1c(C(=O)Nc2nnnn2C)ccnc1-c1ccc(C#N)cc1` [Compound 1-2029], in the experiment on Chenopodium album, the “Weeding effect … Chenopodium album” value was 5 (Level 5: growth control rate is above 85%). Moreover, in the experiment with Descurainia sophia, the “Weeding effect … Descurainia sophia” value is on record as 5 (Level 5: growth control rate is above 85%). Moreover, in experiment [1], the “Weeding effect … Amaranthus retroflexus L.” value was 5 (Level 5: growth control rate is above 85%). In the experiment with Abutilon theophrasti, the “Weeding effect … Abutilon theophrasti” value is reported as 5 (Level 5: growth control rate is above 85%).

Consider `Cn1nnnc1NC(=O)c1ccnc(-c2cncnc2)c1Cl` [Compound 1-156], for which the “Weeding effect … Chenopodium album” value in the experiment with Chenopodium album is 5 (Level 5: growth control rate is above 85%). The “Weeding effect … Descurainia sophia” value in the experiment with Descurainia sophia was 5 (Level 5: growth control rate is above 85%). For the same compound, the “Weeding effect … Amaranthus retroflexus L.” value in experiment [1] is reported as 5 (Level 5: growth control rate is above 85%). In the experiment with Abutilon theophrasti, the “Weeding effect … Abutilon theophrasti” value is on record as 5 (Level 5: growth control rate is above 85%).

As for `Cn1nnnc1NC(=O)c1ccnc(-c2ccc(F)cc2)c1-c1ccc(F)cc1` [Compound 1-223], the “Weeding effect … Chenopodium album” value in the experiment with Chenopodium album is on record as 5 (Level 5: growth control rate is above 85%). Also, the “Weeding effect … Descurainia sophia” value in the experiment with Descurainia sophia was 5 (Level 5: growth control rate is above 85%). For the same compound, the “Weeding effect … Amaranthus retroflexus L.” value in experiment [1] is on record as 5 (Level 5: growth control rate is above 85%). In addition, in the experiment with Abutilon theophrasti, the “Weeding effect … Abutilon theophrasti” value is 5 (Level 5: growth control rate is above 85%).

For the compound `Cn1nnnc1NC(=O)c1ccnc(-c2ccc(C=O)s2)c1Cl` [Compound 1-190], the “Weeding effect … Chenopodium album” value in the experiment with Chenopodium album is on record as 5 (Level 5: growth control rate is above 85%). Besides, the “Weeding effect … Descurainia sophia” value in the experiment on Descurainia sophia was 5 (Level 5: growth control rate is above 85%). Moreover, the “Weeding effect … Amaranthus retroflexus L.” value in experiment [1] is 5 (Level 5: growth control rate is above 85%). For the same compound, the “Weeding effect … Abutilon theophrasti” value in the experiment with Abutilon theophrasti is listed as 5 (Level 5: growth control rate is above 85%).

For `Cc1cncc(-c2nccc(C(=O)Nc3nnnn3C)c2Cl)c1` [Compound 1-126], in the experiment on Chenopodium album, the “Weeding effect … Chenopodium album” value is listed as 5 (Level 5: growth control rate is above 85%). Further, the “Weeding effect … Descurainia sophia” value in the experiment on Descurainia sophia is 5 (Level 5: growth control rate is above 85%). The “Weeding effect … Amaranthus retroflexus L.” value in experiment [1] is reported as 5 (Level 5: growth control rate is above 85%). In the experiment with Abutilon theophrasti, the “Weeding effect … Abutilon theophrasti” value is on record as 5 (Level 5: growth control rate is above 85%).

As for `Cn1nnnc1NC(=O)c1ccnc(-c2cccc(OC(F)(F)F)c2)c1Cl` [Compound 1-32], the “Weeding effect … Chenopodium album” value with Chenopodium album is 5 (Level 5: growth control rate is above 85%). The “Weeding effect … Descurainia sophia” value in the experiment on Descurainia sophia was 5 (Level 5: growth control rate is above 85%). In addition, the “Weeding effect … Amaranthus retroflexus L.” value in experiment [1] is recorded as 5 (Level 5: growth control rate is above 85%). Also, the “Weeding effect … Abutilon theophrasti” value in the experiment on Abutilon theophrasti is 5 (Level 5: growth control rate is above 85%).

As for `Cc1conc1NC(=O)c1ccnc(-c2ccc(F)cc2)c1Cl` [Compound 1-1577], the “Weeding effect … Chenopodium album” value in the experiment on Chenopodium album is 5 (Level 5: growth control rate is above 85%). Besides, the “Weeding effect … Descurainia sophia” value in the experiment on Descurainia sophia is reported as 5 (Level 5: growth control rate is above 85%). Besides, the “Weeding effect … Amaranthus retroflexus L.” value in experiment [1] is on record as 5 (Level 5: growth control rate is above 85%). Also, the “Weeding effect … Abutilon theophrasti” value in the experiment on Abutilon theophrasti was 5 (Level 5: growth control rate is above 85%).
